This assay deals with T1, hMrgpMRGPRX2 (Homo sapiens, UniProt Q96LB1).
T1 construct: expressed in transfected cells
T1 sequence (Q96LB1 1-330): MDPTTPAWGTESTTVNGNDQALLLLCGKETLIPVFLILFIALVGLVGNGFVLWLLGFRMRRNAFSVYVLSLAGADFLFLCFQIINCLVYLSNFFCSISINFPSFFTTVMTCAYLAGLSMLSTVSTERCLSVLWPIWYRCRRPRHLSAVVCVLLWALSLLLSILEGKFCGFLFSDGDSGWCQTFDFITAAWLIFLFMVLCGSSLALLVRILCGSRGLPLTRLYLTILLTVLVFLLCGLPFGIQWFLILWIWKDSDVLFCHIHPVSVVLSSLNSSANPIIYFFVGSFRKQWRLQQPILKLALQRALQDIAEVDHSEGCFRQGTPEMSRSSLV
The assay is described as follows: FLIPR intracellular calcium mobilization, antagonist activity in recombinant hMrgpMRGPRX2 expressing cells. In kind it is cell-based. The settings on record: read-out: Human MrgprX2 Antagonist pIC50 (converted). The text has this: Potent and selective hMrgpMRGPRX2 compounds have been generated from compounds identified during a high throughput screening (HTS) campaign and followed up with cycles of structure activity based medicinal chemistry efforts. These compounds were characterized in recombinant hMrgpMRGPRX2 expressing cells for their antagonist activity and the potency was confirmed in the human mast cell line LAD-2, where the target is endogenously expressed. The assays used to determine potencies are functional read-out looking at intracellular calcium mobilization using the FLIPR™ technology. In these FLIPR assays, we test the identified compounds using recombinant cellular systems expressing mouse MrgprB2, mouse MrgprA1, gerbil MrgpMRGPRX2 orthologue, Chinese hamster MrgpMRGPRX2 orthologue and cynomolgus monkey MrgpMRGPRX2 orthologue, respectively for orthologue activity.
(A change in cytosolic calcium serves as a functional read-out for many receptors and channels.)
Consider `CC1(C)CC1C(=O)Nc1ccc(Oc2ccnc(F)c2)cn1` (stereo not shown) [Compound E072], for which the IC50 is 1.91 µM.

For the compound `Cn1cc(Oc2ccc(NC(=O)C3C(C)(C)C3(C)C)nc2)cn1` [Compound E073], the IC50 was 0.00363 µM.

Consider `CC1(C)C(C(=O)Nc2ccc(Oc3cn[nH]c3)cn2)C1(C)C` [Compound E074], for which the IC50 is 0.257 µM.

For `CC1(C)C(C(=O)Nc2ccc(Oc3cc(F)cc(C(N)=O)c3)cn2)C1(C)C` [Compound E075], the IC50 is 0.501 µM.

For the compound `CC1(C)C(C(=O)Nc2ccc(Oc3ccc(C(N)=O)nc3)cn2)C1(C)C` [Compound E076], the IC50 is 1.26 µM.

As for `CNc1ccc(NC(=O)C2C(C)(C)C2(C)C)nc1` [Compound E079, 2,2,3,3-tetramethyl-N-[5-(methylamino)-2-pyridyl]cyclopropanecarboxamide], the IC50 was 1.66 µM.

On to `CC(C)(O)COc1ccc(NC(=O)C2C(C)(C)C2(C)C)nc1` [Compound E080, N-[5-(2-hydroxy-2-methyl-propoxy)-2-pyridyl]-2,2,3,3-tetramethyl-cyclopropanecarboxamide], for which the IC50 was 4.37 µM.

As for `CC(C)C(=O)Nc1ccc(N2CCCC2)cn1` [Compound E081, 2-methyl-N-(5-pyrrolidin-1-yl-2-pyridyl)propanamide], the IC50 was 3.98 µM.

For the compound `CC1(C)C(C(=O)Nc2ccc(OCCO)cn2)C1(C)C` [Compound E082, N[5-(2-hydroxyethoxy)pyridin-2-yl]-2,2,3,3-tetramethylcyclopropane-l-carboxamide], the IC50 was 4.37 µM.

In the case of `CC1(C)C(C(=O)Nc2ccc(OC3COC3)cn2)C1(C)C` [Compound E083], the IC50 was 1.07 µM.

With `CC(C)C(=O)Nc1ccc(OC2CCCC2)cn1` [Compound E084], the IC50 is 1.58 µM.

Regarding `CC1(C)C(C(=O)Nc2ccc(OC3CCOCC3)cn2)C1(C)C` [Compound E085], the IC50 is 1 µM.

Consider `CC1(C)C(C(=O)Nc2ccc(OCc3cncc(F)c3)cn2)C1(C)C` [Compound E086], for which the IC50 was 0.204 µM.

In the case of `CC1(C)C(C(=O)Nc2ccc(-n3cc(F)cn3)cn2)C1(C)C` [Compound E087], the IC50 is 0.0437 µM.

In the case of `CC1(C)C(C(=O)Nc2ccc(-n3ccc(C#N)n3)cn2)C1(C)C` [Compound E088], the IC50 was 0.0282 µM.

On to `CC1(C)C(C(=O)Nc2ccc(-n3nccn3)cn2)C1(C)C` [Compound E089], for which the IC50 is 0.0151 µM.

In the case of `CC1(C)C(C(=O)Nc2ccc(-n3ccnn3)cn2)C1(C)C` [Compound E090], the IC50 was 3.39 µM.

As for `CC1(C)C(C(=O)Nc2ccc(-n3ccc(F)n3)cn2)C1(C)C` [Compound E091], the IC50 was 0.00813 µM.

As to `CC1(C)C(C(=O)Nc2ccc(-n3cncn3)cn2)C1(C)C` [Compound E092], the IC50 was 8.13 µM.

In the case of `CC1(C)C(C(=O)Nc2ccc(OCC(F)(F)F)cn2)C1(C)C` [Compound E093, 2,2,3,3-tetramethyl-N-[5-(2,2,2-trifluoroethoxy)-2-pyridyl]cyclopropanecarboxamide], the IC50 was 0.0316 µM.

For the compound `CC(C)C(=O)Nc1ccc(Nc2ccccc2)cn1` [Compound E094, N-(5-anilino-2-pyridyl)-2-methyl-propanamide], the IC50 is 3.98 µM.

As for `CC(C)C(=O)Nc1ccc(N2CCc3ccccc32)cn1` [Compound E095, N-(5-indolin-1-yl-2-pyridyl)-2-methyl-propanamide], the IC50 was 3.98 µM.

On to `CC(C)C(=O)Nc1ccc(N(C)c2ccccc2)cn1` [Compound E096, 2-methyl-N-[5-(N-methylanilino)-2-pyridyl]propanamide], for which the IC50 is 2.51 µM.

On to `CC1(C)C(C(=O)Nc2ccc(N3CCCC3)cn2)C1(C)C` [Compound E097], for which the IC50 is 0.00251 µM.

On to `CC1(C)CC1C(=O)Nc1ccc(N2CCCC2)cn1` (stereo not shown) [Compound E098], for which the IC50 is 0.0871 µM.

In the case of `CC1(C)C(C(=O)Nc2ccc(N3CCC(F)C3)cn2)C1(C)C` (stereo not shown) [Compound E099], the IC50 is 0.0251 µM.

As for `CC1(C)C(C(=O)Nc2ccc(N3CCC(F)(F)C3)cn2)C1(C)C` [Compound E100], the IC50 is 0.0347 µM.

As for `CC1(C)C(C(=O)Nc2ccc(Nc3cncc(F)c3)cn2)C1(C)C` [Compound E101], the IC50 is 0.912 µM.

`CCN(C[C@@H](O)C(F)(F)F)C(=O)Nc1ccc(Oc2ccc(F)c(F)c2)cn1` [Compound E102, 3-[5-(3,4-difluorophenoxy)-2-pyridyl]-1-ethyl-1-[(2R)-3,3,3-trifluoro-2-hydroxy-propyl]urea]: the IC50 was 0.0107 µM.

Take `C[C@H](O)CN(C)C(=O)Nc1ccc(Oc2cccc(F)c2)cn1` [Compound E103]: the IC50 was 1.58 µM.

For the compound `CC(C)N(C)C(=O)Nc1ccc(Oc2ccc(F)c(F)c2)cn1` [Compound E104], the IC50 was 0.126 µM.

With `O=C(Nc1ccc(Oc2ccc(F)c(F)c2)cn1)N1CCCC1` [Compound E105], the IC50 was 7.94 µM.

Turning to `CN(CC(F)(F)F)C(=O)Nc1ccc(Oc2ccc(F)c(F)c2)cn1` [Compound E106], the IC50 is 0.316 µM.

With `CC(C)NC(=O)Nc1ccc(Oc2ccc(F)c(F)c2)cn1` [Compound E107], the IC50 is 6.31 µM.

For `CN(C(=O)Nc1ccc(Oc2ccc(F)c(F)c2)cn1)C1CC1` [Compound E108], the IC50 was 0.631 µM.

For the compound `CCN(C[C@H](C)O)C(=O)Nc1ccc(Oc2ccc(F)c(F)c2)cn1` [Compound E109], the IC50 was 0.363 µM.

For `CCN(C[C@@H](O)C(F)(F)F)C(=O)Nc1ccc(Oc2cncc(F)c2)cn1` [Compound E110], the IC50 was 5.13 µM.

Consider `CN(C[C@@H](O)C(F)(F)F)C(=O)Nc1ccc(Oc2ccc(F)c(F)c2)cn1` [Compound E111], for which the IC50 is 0.0575 µM.

With `CCN(CC(C)(C)O)C(=O)Nc1ccc(Oc2ccc(F)c(F)c2)cn1` [Compound E112], the IC50 was 0.155 µM.

Regarding `CN(C[C@H](O)C(F)(F)F)C(=O)Nc1ccc(Oc2ccc(F)c(F)c2)cn1` [Compound E113], the IC50 is 0.575 µM.

As to `CC(O)CN(CC(F)(F)F)C(=O)Nc1ccc(Oc2ccc(F)c(F)c2)cn1` (stereo not shown) [Compound E114], the IC50 is 1.2 µM.

With `CCN(C[C@@H](O)C(F)(F)F)C(=O)Nc1ccc(Oc2ccc(C#N)cc2)cn1` [Compound E115], the IC50 was 8.91 µM.

Consider `CCN(C[C@@H](O)C(F)(F)F)C(=O)Nc1ccc(Oc2cc(F)cc(C#N)c2)cn1` [Compound E116], for which the IC50 was 1.35 µM.

Turning to `CCN(C[C@@H](O)C(F)(F)F)C(=O)Nc1ccc(Oc2cc(F)cc(F)c2)cn1` [Compound E117], the IC50 was 0.00204 µM.

For the compound `CCN(C[C@@H](O)C(F)(F)F)C(=O)Nc1ccc(Oc2ccc(F)cc2)cn1` [Compound E118], the IC50 is 0.0501 µM.

For the compound `CCN(C[C@@H](O)C(F)(F)F)C(=O)Nc1ccc(Oc2cccc(F)c2)cn1` [Compound E119], the IC50 is 0.0123 µM.

Consider `CCN(C[C@@H](O)C(F)(F)F)C(=O)Nc1ccc(Oc2cccc(F)c2F)cn1` [Compound E120], for which the IC50 was 0.00372 µM.

In the case of `Cc1nc(NC(=O)N(C)C[C@@H](O)C(F)(F)F)ccc1Oc1ccc(F)c(F)c1` [Compound E121], the IC50 was 0.708 µM.

As to `CCN(C[C@@H](O)C(F)(F)F)C(=O)Nc1ccc(Oc2ccccc2F)cn1` [Compound E122], the IC50 was 0.0038 µM.

On to `CCN(C[C@@H](O)C(F)(F)F)C(=O)Nc1ccc(Oc2cc(F)ccc2F)cn1` [Compound E123], for which the IC50 was 0.00339 µM.

`CC1(C)CN(C(=O)Nc2ccc(Oc3ccc(F)c(F)c3)cn2)C1` [Compound E124]: the IC50 is 3.24 µM.

Take `CC1(C)CCN1C(=O)Nc1ccc(Oc2ccc(F)c(F)c2)cn1` [Compound E125]: the IC50 was 0.468 µM.

Take `CCN(C[C@@H](O)C(F)(F)F)C(=O)Nc1ccc(Oc2cc(C#N)ccc2F)cn1` [Compound E126]: the IC50 was 7.76 µM.

For the compound `CCN(CC(O)C(F)(F)F)C(=O)Nc1ccc(Oc2cccc(F)c2)cn1` (stereo not shown) [Compound E127], the IC50 was 0.0158 µM.

Take `CCN(C[C@@H](O)C(F)(F)F)C(=O)Nc1ccc(Oc2cccc(F)c2C#N)cn1` [Compound E128]: the IC50 was 0.12 µM.

Take `CCN(C[C@@H](O)C(F)(F)F)C(=O)Nc1ccc(Oc2cc(F)ccc2C#N)cn1` [Compound E129]: the IC50 was 1.95 µM.

`O=C(Nc1ccc(Oc2cc(F)cc(F)c2)cn1)N1CC[C@@H](CO)C1` [Compound E130]: the IC50 is 7.08 µM.

On to `O=C(NCC(O)C(F)(F)F)Nc1ccc(Oc2cc(F)cc(F)c2)cn1` (stereo not shown) [Compound E131], for which the IC50 was 1 µM.

As for `O=C(Nc1ccc(Oc2cc(F)cc(F)c2)cn1)N1CCC[C@@H]1CO` [Compound E132], the IC50 is 0.575 µM.

`O=C(Nc1ccc(Oc2cc(F)cc(F)c2)cn1)N1CC[C@H](CO)C1` [Compound E133]: the IC50 was 6.17 µM.

Regarding `CCN(C[C@@H](O)C(F)(F)F)C(=O)Nc1ccc(Oc2cccc(C#N)c2F)cn1` [Compound E134], the IC50 is 0.468 µM.

As to `CCN(C[C@@H](O)C(F)(F)F)C(=O)Nc1ccc(Oc2c(F)cccc2F)cn1` [Compound E135], the IC50 is 0.00813 µM.

Take `CCN(C[C@@H](O)C(F)(F)F)C(=O)Nc1ccc(Oc2c(F)cccc2C#N)cn1` [Compound E136]: the IC50 was 0.158 µM.

Turning to `CCN(C[C@@H](O)C(F)(F)F)C(=O)Nc1ccc(Oc2ccc(F)cc2F)cn1` [Compound E137], the IC50 was 0.00209 µM.
